We go through two compounds from PMC5947712, “High‐Throughput Kinetic Analysis for Target‐Directed Covalent Ligand Discovery” (Angewandte Chemie (International Ed. in English), 2018).

The target of assay [1] is T1, Cdk2(WT) (Homo sapiens, UniProt P24941). Briefly: TdCD melting temperature of acrylamide-modified Cdk2. It is filed as binding. Details: made in house; host or cells: E. coli Tuner(DE3). As to conditions: compound-modified Cdk2(WT), n=3. As for the experimental part:
(§1) GSTBCdk2" and" GSTBcyclin" A2:! Harvested! cells! were! resuspended! in! 50! mM! HEPES! buffer! (pH7.5)! containing! 150! mM! NaCl,!
(§2) 10!mM!MgCl2,!2!mM!dithiothreitol!(DTT),!0.5!mg!mLR1!lysozyme,!and!0.01%!Triton!XR100!at!4!˚C!and!incubated!for!30!minutes.!
(§3) After! sonication! and! centrifugation! (40! min,! 16000! g),! the! supernatant! was! incubated! for! 1! h! with! glutathioneRSepharose!
(§4) beads,! washed! with! lysis! buffer! and! the! desired! protein! eluted! with! 10! mM! GSH! (100! mM! Tris,! pH! 8).! After! incubation! the! deR
(§5) sired! protein! was! cleaved! from! the! GST! tag! with! PreScission! protease! (100:1)! at! 4 °C! for! 4! hours,! the! cleaved! GST! tag! was!
(§6) removed! with! glutathioneRSepharose! beads.! Cdk2! was! concentrated! and! then! loaded! onto! a! Superdex! 75! (16/60)! column,!
(§7) eluting! with! 100! mM! phosphate! buffer! containing! 50! mM! DTT.! Purified! Cdk2! was! concentrated! to! 10! mg! mLR1!and! stored! at!–
(§8) 80! ˚C.! Cyclin! A2! was! purified! by! glutathioneRSepharose! affinity! as! described! above! with! the! following! amendments:! 100! mM!
(§9) MgCl2!was! added! after! GST! cleavage! to! minimise! protein! aggregation! and! gel! filtration! was! performed! with! 50! mM! HEPES!
buffer! (pH! 7.5)! containing! 150! mM! NaCl,! 100! mM! MgCl2,! 2! mM! DTT.! ! […]
labelling! reached! completion! (as! monitored! by! fluorescence! quench! assay! and/or! intact! protein! mass! spectrometry).! […]

Assay [2] concerns the target T1, Cdk2(WT). Kind of assay: In vitro kinase assay (NADH-coupled) of ligand-conjugated pCdk2 with Cyclin A2. Type of assay: biochemical. Details: GST (N, cleaved yes); made in house; host or cells: E. coli Tuner(DE3). Particulars: for Kinase activity ± s.e.m relative to Cdk2(WT): n=3. On the procedure:
Hs!Cyclin!A2!F!5’![…]!
Hs!Cyclin!A2!R!5’![…]!
Sc!CAK1!R!5’!GAATTCttatgggcttttctaattcttgcaag!
as §1, §2, §3, §4, §5, §6, §7, §8, §9
buffer! (pH! 7.5)! containing! 150! mM! NaCl,! 100! mM! MgCl2,! 2! mM! DTT.! ! GSTRCAK1! was! also! purified! using! the! glutathioneR
Sepharose!affinity!workflow,!however!no!protease!or!gel!filtration!steps!were!performed!and!the!enzyme!was!used!crude.!
His6BCdk2:! Cell! lysis! was! performed! as! above! with! the! addition! of! 30! mM! imidiazole! to! the! lysis! buffer.! Following! sonication!
the! supernatant! was! incubated! for! 1! hour! with!nickel! sulfate! charged! NTA! agarose! beads,! washed! with! lysis!buffer! suppleR
mented!with!50!mM!imidiazole!and!then!His6RCdk2!eluted!with!lysis!buffer!containing!500!mM!imidiazole.!After!dialysis!against!
100! mM! phosphate! buffer! (pH! 8)! containing! 1! mM! DTT,! His6RCdk2! was! concentrated! and! loaded! onto! a! Superdex! 75! (16/60)!
column,!eluting!with!100!mM!phosphate!buffer!(pH!8)!without!reducing!agent."
I., Acrylamide, labelling, of, Cdk2, for, crystallography, TdCD, kinase, assays, and, intact%
protein,mass,spectrometry,
Cdk2! (10! µM)! was! reacted! with! acrylamide! ligands! at! 500! µM! in! 100! mM! phosphate! buffer! (pH! 8)! containing! 1%! DMSO,! until!
labelling! reached! completion! (as! monitored! by! fluorescence! quench! assay! and/or! intact! protein! mass! spectrometry).! Excess!
ligand! was! subsequently! removed! by! serial! dilution! and! concentration! (×5)! into! the!appropriate! buffer! using! Amicon! UltraR0.5!
centrifugal!filter!devices!(MW!cutRoff!=!10!kDa).!
J.,Intact%protein,mass,spectrometry, […]

Assay [3] in a line: qIT (quantitative irreversible tethering) thiol consumption assay with glutathione. Particulars: compound 0.5 mM, glutathione 5 μM, TCEP-agarose 2 % w/v.
Experimental: To measure the kinetics of electrophile‐thiol conjugation we developed quantitative irreversible tethering (qIT), a technique which employs fluorogenic thiol quantification (FTQ) in a high‐throughput thiol consumption assay (Figure 1 a). […] We solved this problem using an immobilized reducing agent (TCEP‐agarose, 2 % w/v), allowing facile separation by centrifugation before conducting the FTQ step (Figure 1 b).
The target thiol (5 μM) is reacted with electrophilic fragments (0.5 mM) under pseudo‐first‐order conditions in the presence of TCEP‐agarose (2 % w/v). Reaction progress is followed by discrete measurements of residual target thiol concentration using the fluorogenic probe CPM and rate constants are derived from exponential regression analysis. b) TCEP‐agarose prevents aerobic thiol oxidation. Glutathione solutions were stored ±TCEP‐agarose (2 % w/v).
Electrophiles were individually reacted with glutathione under pseudo‐first‐order conditions in the presence of TCEP‐agarose. […] Fluorescence measurements were normalized against a DMSO control and exponential regressions used to determine rate constants.
ReactionBplate" setup:!Each! well! of! a! 96Rwell! PCR! plate! was! charged! with! 60–100! µL! of! target! thiol! (GSH! or! protein,! 10! µM)!
and! 4%! w/v! TCEPRagarose! beads! in! 100! mM! phosphate! buffer! (pH! 7.5! or! 8)! and! cooled! to! 4! ˚C.! Reactions! were! started! by!
addition! of! an! equal! volume! of! preRcooled! electrophile! solution! (1! mM,! 2%! DMSO)! in! 0.1! M! phosphate! buffer! (final! concentraR
tion:! thiol! =! 5! µM,! electrophile! =! 0.5! mM,! 2%! w/v! TCEPRagarose! beads),! with! a! minimum! of! 4! wells! per! plate! used! as!
DMSO/thiol! only! controls.! After! mixing,! TCEPRagarose! was! pelleted! by! centrifugation! (1,300! rpm,! 1! min)! and! the! plate! incuR
bated!at!4!˚C.,CPM"Quench:! At! a! series! of! time! points!
Where [4] appears, read: Cdk2(WT) completely modified with compound.

Turning to `C=CC(=O)N1CCN(C(=O)OC(C)(C)C)c2ccccc21` [Acrylamide 1], the “Tm ± s.e.m” value on Cdk2(WT) [1] is 48.95 ± 0.25 ˚C. On Cdk2(WT) [2] (setting [4]), the “inhibition of kinase activity” value was “about 83%” and the “Kinase activity ± s.e.m relative to Cdk2(WT)” value was 16.8±3.1%. Further, the “k GSH (pseudo-first-order rate constant)” value in assay [3] turned out to be 0.041 h⁻¹.
For `C=CC(=O)N1CCN(C(=O)OC)c2ccccc21` [Acrylamide 2], at Cdk2(WT) [1], the “Tm ± s.e.m” value is recorded as 50.56 ± 0.24 ˚C. For the same compound, on Cdk2(WT) [2] (setting [4]), the “Kinase activity ± s.e.m relative to Cdk2(WT)” value is reported as 96.6±5.6%. In addition, the “inhibition of kinase activity (in words)” value on Cdk2(WT) [2] (Cdk2(WT) modified with compound) is given as “no significant inhibition”. Moreover, the “k GSH (pseudo-first-order rate constant)” value in assay [3] was 0.089 h⁻¹.
